20 molecules from patent US6458802B1, “Antidepressant azaheterocyclymethyl derivatives of 2,3-dihydro-1,4-dioxino [2,3-f]quinoline” (Wyeth, priority 2001, dated 2002) can be followed below.

As usually defined, the melting point is the temperature, or range, at which the solid turns liquid. Usually Ki stands for the equilibrium dissociation constant of an inhibitor or competing ligand from its target. In general, IC50 refers to the concentration that gives 50% inhibition.

One data set has as its target T1, serotonin transporter (Rattus norvegicus, UniProt P31652).
T1 construct: displace ^3H-paroxetine from male rat frontal cortical membranes; from tissue; host or cells: male rat frontal cortex membranes
Nature of the data set: 3H-paroxetine displacement, affinity for the serotonin transporter. It is filed as binding.

A further data set addresses T2, human 5HT1A receptors (Homo sapiens, UniProt P08908).
T2 construct: expressed in transfected cells; host or cells: CHO cells
T2 sequence (P08908 1-422): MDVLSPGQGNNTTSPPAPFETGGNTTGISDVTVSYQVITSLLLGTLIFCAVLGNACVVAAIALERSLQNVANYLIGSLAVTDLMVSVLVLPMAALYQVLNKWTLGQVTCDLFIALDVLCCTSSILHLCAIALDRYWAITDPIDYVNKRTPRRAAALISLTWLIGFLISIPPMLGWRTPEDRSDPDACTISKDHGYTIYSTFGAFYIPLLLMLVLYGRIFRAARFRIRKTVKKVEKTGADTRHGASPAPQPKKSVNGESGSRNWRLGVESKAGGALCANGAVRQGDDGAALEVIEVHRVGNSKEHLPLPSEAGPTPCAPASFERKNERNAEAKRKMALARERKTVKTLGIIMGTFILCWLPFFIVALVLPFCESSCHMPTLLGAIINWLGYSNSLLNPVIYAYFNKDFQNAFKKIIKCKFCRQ
Nature of the data set: [3H] 8-OH-DPAT displacement from the 5HT1A serotonin receptor (transfected CHO cells). The class given is binding. From the text:
High affinity for the serotonin 5HT1A receptor was established by testing the claimed compound's ability to displace [^3H] 8-OH-DPAT (dipropylamino-tetralin) from the 5HT1A serotonin receptor following a modification of the procedure of Hall et al., J. Neurochem. 44, 1685 (1985) which utilizes CHO cells stably transfected with human 5HT1A receptors.

Data set [1] has as its target T3, cloned human 5HT1A receptors (Homo sapiens, UniProt P08908).
T3 construct: expressed in transfected cells
T3 sequence (P08908 1-422): T2 sequence (P08908 1-422)
Kind of data set: 35S-GTPγS binding assay, antagonist activity at 5HT1A receptors. The following applies: for IC50: 35S-GTPγS binding, reversal of the effects of the standard agonist 8-OH-DPAT, membranes with cloned human 5HT1A receptors, read-out: 5HT1A Function IC50; for Emax: maximum inhibitory effect in 35S-GTPγS binding versus 8-OH-DPAT, read-out: 5HT1A Function (Imax). It is filed as biochemical. Here is the method: Antagonist activity at 5HT1A receptors was established by using a ^35S-GTPγS binding assay similar to that used by Lazareno and Birdsall (Br. J. Pharmacol. 109: 1120, 1993), in which the test compound's ability to affect the binding of 35S-GTPγS to membranes containing cloned human 5HT1A receptors was determined. Agonists produce an increase in binding whereas antagonists produce no increase but rather reverse the effects of the standard agonist 8-OH-DPAT. The test compound's maximum inhibitory effect is represented as the 1max, while its potency is defined by the IC50.

The mark [2] stands for this setting: displacement of [3H] 8-OH-DPAT, CHO cells stably transfected with human 5HT1A receptors, read-out: 5HT1A Receptor Affinity KI.

Counter-ions that a name gives are not always drawn. Like-named read-outs stand apart in the source and are kept apart here.

T1 sequence (P31652 whole entry): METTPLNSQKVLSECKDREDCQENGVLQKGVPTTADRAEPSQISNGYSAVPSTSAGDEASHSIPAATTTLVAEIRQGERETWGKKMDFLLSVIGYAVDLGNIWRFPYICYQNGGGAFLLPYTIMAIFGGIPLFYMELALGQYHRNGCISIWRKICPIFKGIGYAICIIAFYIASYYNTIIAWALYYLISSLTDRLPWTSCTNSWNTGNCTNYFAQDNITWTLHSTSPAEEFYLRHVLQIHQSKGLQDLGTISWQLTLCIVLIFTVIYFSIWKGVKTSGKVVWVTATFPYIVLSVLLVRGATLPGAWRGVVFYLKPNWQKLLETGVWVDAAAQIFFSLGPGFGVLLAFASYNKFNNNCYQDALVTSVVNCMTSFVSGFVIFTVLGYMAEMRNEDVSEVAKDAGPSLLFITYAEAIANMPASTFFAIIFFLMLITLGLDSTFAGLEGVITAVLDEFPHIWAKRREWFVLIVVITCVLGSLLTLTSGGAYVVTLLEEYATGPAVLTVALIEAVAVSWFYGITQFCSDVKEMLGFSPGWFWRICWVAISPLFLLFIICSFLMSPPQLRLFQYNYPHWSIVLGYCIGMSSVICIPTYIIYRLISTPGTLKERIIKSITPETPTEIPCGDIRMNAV

The molecule `NC(=O)c1ccc2[nH]cc(C3=CCN(C[C@H]4COc5ccc6ncccc6c5O4)CC3)c2c1` (as salt: fumarate) (hydrate or solvate) [Example 6, 3-[1-(2,3-Dihydro[1,4]dioxino[2,3-f]qiuinolin-2-ylmethyl)-1,2,3,6-tetrahydropyridin-4-yl]-1H-indole-5-carboxylic Acid Amide] displayed a melting point of 219 °C.
In the case of `Cc1ccc2c3c(ccc2n1)OCC(CN1CC=C(c2c[nH]c4ccc(F)cc24)CC1)O3` (stereo not shown) (as salt: fumarate) (hydrate or solvate) [Example 11, 2-[4-(5-Fluoro-1H-indol-3-yl)-3,6-dihydro-2H-pyridin-1-ylmethyl]-8-methyl-2,3-dihydro[1,4]dioxino[2,3-f]quinoline], the melting point is 198 to 199 °C.
Still for that read-out and setting: in the case of `Cc1ccc2c3c(ccc2n1)OCC(CN1CCC(c2c[nH]c4ccccc24)CC1)O3` (stereo not shown) (as salt: fumarate) (hydrate or solvate) [Example 12, 2-[4-(1H-indol-3-yl)piperidin-1-ylmethyl]-8-methyl-2,3-dihydro[1,4]dioxino[2,3-f]quinoline] it was 206 °C.
On the same count and under the same terms, with `CCc1ccc2c3c(ccc2n1)OCC(CN1CC=C(c2c[nH]c4ccc(F)cc24)CC1)O3` (stereo not shown) (as salt: fumarate) (hydrate or solvate) [Example 14, 8-Ethyl-2-[(4-(5-fluoro-1H-indol-3-yl)-3,6-dihydropyridin-1(2H)-yl)methyl]-2,3-dihydro[1,4]dioxino[2,3-f]quinoline] the figure was 143 to 144 °C; with `Fc1ccc2[nH]cc(C3=CCN(CC4COc5cc(F)c6ncccc6c5O4)CC3)c2c1` (stereo not shown) (as salt: fumarate) (hydrate or solvate) [Example 15, 6-Fluoro-2-[(4-(5-fluoro-1H-indol-3-yl)-3,6-dihydropyridin-1(2H)-yl)methyl]-2,3-dihydro[1,4]dioxino[2,3-f]quinoline], 190 °C.
On the same count and under the same terms, in the case of `Nc1ccc2c3c(ccc2n1)OC[C@H](CN1CC=C(c2c[nH]c4ccc(F)cc24)CC1)O3` (as salt: fumarate) (hydrate or solvate) [Example 18, 2-[4-(5-Fluoro-1H-indol-3-yl)-3,6-dihydro-2H-pyridin-1-ylmethyl]-2,3-dihydro[1,4]dioxino[2,3-f]guinolin-8-ylamine] it was 245 °C.
Molecule `Cc1ccc2[nH]cc(C3=CCN(CC4COc5ccc6nc(C)ccc6c5O4)CC3)c2c1` (stereo not shown) (as salt: fumarate) (hydrate or solvate) [Example 22, 2-[4-(5-Methyl-1H-indol-3-yl)-3,6-dihydro-2H-pyridin-1-ylmethyl]-8-methyl-2,3-dihydro[1,4]dioxino[2,3-f]quinoline] returned a melting point of 150 to 155 °C.
`COc1ccc2[nH]cc(C3=CCN(C[C@H]4COc5ccc6ncccc6c5O4)CC3)c2c1` (as salt: fumarate) [Example 1]: the melting point is 170 °C.
The same measure, in the same setting: in the case of `N#Cc1ccc2[nH]cc(C3=CCN(CC4COc5ccc6ncccc6c5O4)CC3)c2c1` (stereo not shown) (as salt: fumarate) [Example 5, 3-[1-(2,3-Dihydro[1,4]dioxino[2,3-f]quinolin-2-ylmethyl)-1,2,3,6-tetrahydropyridin-4-yl]-1H-indole-5-carbonitrile] it was 159 to 161 °C; in that of `COc1cc2c(c3cccnc13)O[C@@H](CN1CC=C(c3c[nH]c4ccc(F)cc34)CC1)CO2` (as salt: fumarate) [Example 17, 2-[4-(5-Fluoro-1H-indol-3-yl)-3,6-dihydro-2H-pyridin-1-ylmethyl]-6-methoxy-2,3-dihydro[1,4]dioxino[2,3-f]qiuinoline], 217 °C; in that of `Cc1ccc2c3c(ccc2n1)OCC(CN1CC=C(c2c[nH]c4cc(F)ccc24)CC1)O3` (stereo not shown) (as salt: oxalate) (hydrate or solvate) [Example 10, 2-[4-(6-Fluoro-1H-indol-3-yl)-3,6-dihydro-2H-pyridin-1-ylmethyl]-8-methyl-2,3-dihydro[1,4]dioxino[2,3-f]quinoline], 140 to 143 °C.
Turning to `Fc1ccc2[nH]cc(CC3CCN(C[C@H]4COc5ccc6ncccc6c5O4)CC3)c2c1` (as salt: oxalate) [Example 3], the melting point was 184 °C.
Molecule `Fc1ccc2[nH]cc(C3=CCN(C[C@H]4COc5ccc6ncccc6c5O4)CC3)c2c1` (hydrate or solvate) [Example 2] showed a melting point of 184 °C.
`C1=C(c2c[nH]c3ccccc23)CCN(C[C@H]2COc3ccc4ncccc4c3O2)C1` (hydrate or solvate) [Example 4, 2-[1,4-(1H-indol-3-yl)-3,6-dihydro-2H-pyridin-1-ylmethyl]-2,3-dihydro[1,4]dioxino[2,3-f]quinoline] showed a melting point of 217 °C.
`Cc1ccc2c3c(ccc2n1)OCC(CN1CCC(Cc2c[nH]c4ccc(F)cc24)CC1)O3` (stereo not shown) [Example 8, 2-({4-[(5-Fluoro-1H-indol-3-yl)methyl]piperidin-1-yl}methyl)-8-methyl-2,3-dihydro[1,4]dioxino[2,3-f]quinoline] showed a melting point of 91 to 92 °C. Also, on serotonin transporter (displacement of 3H-paroxetine from male rat frontal cortical membranes, read-out: 5-HT Transporter Affinity KI), the inhibition constant (Ki) is 0.00256 µM. Moreover, the Ki at human 5HT1A receptors (setting [2]) was found to be 0.00724 µM.
For `CCc1ccc2c3c(ccc2n1)OCC(CN1CC=C(c2c[nH]c4ccc(F)cc24)CC1)O3` (stereo not shown) [Example 14, 8-Ethyl-2-[(4-(5-fluoro-1H-indol-3-yl)-3,6-dihydropyridin-1(2H)-yl)methyl]-2,3-dihydro[1,4]dioxino[2,3-f]quinoline], the Ki was 0.014 µM at serotonin transporter and 0.0154 µM on human 5HT1A receptors. Moreover, the half-maximal inhibitory concentration (IC50) in data set [1] turned out to be 0.166 µM. The Emax in data set [1] is 100%.
The like results for `Fc1ccc2[nH]cc(C3=CCN(CC4COc5cc(F)c6ncccc6c5O4)CC3)c2c1` (stereo not shown) [Example 15, 6-Fluoro-2-[(4-(5-fluoro-1H-indol-3-yl)-3,6-dihydropyridin-1(2H)-yl)methyl]-2,3-dihydro[1,4]dioxino[2,3-f]quinoline] were, in that order, 0.0015 µM, 0.0364 µM, 1.03 µM and 100%.
The molecule `COc1cc2c(c3cccnc13)O[C@@H](CN1CC=C(c3c[nH]c4ccc(F)cc34)CC1)CO2` [Example 17, 2-[4-(5-Fluoro-1H-indol-3-yl)-3,6-dihydro-2H-pyridin-1-ylmethyl]-6-methoxy-2,3-dihydro[1,4]dioxino[2,3-f]qiuinoline] gave a Ki at serotonin transporter of 0.00474 µM. Moreover, in data set [1], the IC50 worked out at 1.41 µM and the Emax turned out to be 100%. Moreover, at human 5HT1A receptors (setting [2]), the inhibition constant Ki is 0.317 µM.
As for `Nc1ccc2c3c(ccc2n1)OC[C@H](CN1CC=C(c2c[nH]c4ccc(F)cc24)CC1)O3` [Example 18, 2-[4-(5-Fluoro-1H-indol-3-yl)-3,6-dihydro-2H-pyridin-1-ylmethyl]-2,3-dihydro[1,4]dioxino[2,3-f]guinolin-8-ylamine], affinity on serotonin transporter was put at a Ki of 0.00066 µM. Besides, in data set [1], the 50% inhibitory concentration (IC50) was found to be 0.0849 µM and the Emax is 100%. The molecule further displayed an inhibitory constant (Ki) at human 5HT1A receptors of 0.0109 µM.
`Cc1ccc2[nH]cc(C3=CCN(CC4COc5ccc6nc(C)ccc6c5O4)CC3)c2c1` (stereo not shown) [Example 22, 2-[4-(5-Methyl-1H-indol-3-yl)-3,6-dihydro-2H-pyridin-1-ylmethyl]-8-methyl-2,3-dihydro[1,4]dioxino[2,3-f]quinoline]: the inhibition constant (Ki) on serotonin transporter came to 0.059 µM. Also, in data set [1], the IC50 was found to be 0.503 µM and the Emax was found to be 100%. At human 5HT1A receptors, this molecule returned a Ki of 0.0347 µM.
